# Assay results published in ChEMBL document CHEMBL1201862, “PubChem BioAssay data set” (2004).
# Activity calls are given as the source filed them.
# Assays:
# [1] = P. falciparum 3D7-ScDHODH growth inhibitors, dose response, SYBR Green, dry powder samples (AID 1159570); type: functional, cell-based;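 also: parasite growth measured after 72 hours of compound exposure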
# [2] = P. falciparum Dd2 growth inhibitors, dose response, SYBR Green, cherry-picked samples (AID 1159567); type: functional, cell-based
# [3] = P. falciparum ATP4 D1247Y mutant growth inhibitors, dose response, NITD609-resistant line, SYBR Green, dry powder (AID 1159571); type: functional, cell-based;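 also: parasites synchronized at ring stage by sorbitol before testing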
# [4] = P. falciparum Dd2 growth inhibitors, dose response, SYBR Green, dry powder samples (AID 1159566); type: functional, cell-based;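 also: potency for growth inhibition with lower SYBR green DNA signal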
# [5] = P. falciparum Dd2 growth inhibitors, dose response, SYBR Green, dry powder samples, set 9 (AID 1159568); type: functional, cell-based
# [6] = biological target: 5-hydroxytryptamine receptor 2A (Mus musculus, UniProt P35363); type: functional, cell-based;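 also: CHO-K1 cells with tagged receptor and beta-arrestin; agonist potency measured as compound-induced activation of the receptor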
# 5-hydroxytryptamine receptor 2A, sequence (P35363 whole entry): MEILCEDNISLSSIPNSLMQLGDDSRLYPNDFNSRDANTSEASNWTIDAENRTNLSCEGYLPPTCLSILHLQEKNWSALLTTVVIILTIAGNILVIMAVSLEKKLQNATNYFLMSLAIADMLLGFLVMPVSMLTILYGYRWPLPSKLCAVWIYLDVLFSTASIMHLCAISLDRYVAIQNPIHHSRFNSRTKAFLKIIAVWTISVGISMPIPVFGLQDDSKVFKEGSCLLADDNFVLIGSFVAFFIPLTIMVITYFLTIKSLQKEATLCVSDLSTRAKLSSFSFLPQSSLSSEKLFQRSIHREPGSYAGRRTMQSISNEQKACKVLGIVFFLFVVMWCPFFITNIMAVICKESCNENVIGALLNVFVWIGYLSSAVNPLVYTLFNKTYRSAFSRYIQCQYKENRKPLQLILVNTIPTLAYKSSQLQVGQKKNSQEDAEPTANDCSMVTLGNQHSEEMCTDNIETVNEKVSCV
# Mu-type opioid receptor = Mu-type opioid receptor (Homo sapiens, UniProt P35372); type: functional, cell-based;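 also: U2OS cells with beta-arrestin recruitment to OPRM1 by beta-gal complementation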
# Mu-type opioid receptor, sequence (P35372 whole entry): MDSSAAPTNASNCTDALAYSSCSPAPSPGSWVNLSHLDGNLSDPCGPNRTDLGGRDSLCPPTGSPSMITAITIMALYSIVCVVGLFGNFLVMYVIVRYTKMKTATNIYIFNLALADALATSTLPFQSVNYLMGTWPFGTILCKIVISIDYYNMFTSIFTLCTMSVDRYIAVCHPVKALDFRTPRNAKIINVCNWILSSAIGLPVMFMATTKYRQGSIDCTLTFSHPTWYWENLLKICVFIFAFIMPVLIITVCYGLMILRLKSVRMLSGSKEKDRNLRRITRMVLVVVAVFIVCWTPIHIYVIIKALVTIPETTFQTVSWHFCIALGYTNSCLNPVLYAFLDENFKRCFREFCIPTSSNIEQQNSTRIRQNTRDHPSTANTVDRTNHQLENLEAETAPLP
# H9c2 = assay: cells; type: functional, cell-based; details: Rattus norvegicus, H9c2, Myocardium;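 also: confirmatory concentration-response retest of ultra-high-throughput screening hits for modulation of myocardial damage; cell death induced by hydrogen peroxide oxidative stress; compound pretreatment for 60 min then peroxide exposure for 2 h; potency is for protecting the cells against peroxide damage rather than for killing them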
# Estrogen receptor = biological target: T1, Estrogen receptor (Homo sapiens, UniProt P03372);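 also: potency for inhibiting coactivator peptide recruitment to the receptor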
# T1 sequence (P03372 whole entry): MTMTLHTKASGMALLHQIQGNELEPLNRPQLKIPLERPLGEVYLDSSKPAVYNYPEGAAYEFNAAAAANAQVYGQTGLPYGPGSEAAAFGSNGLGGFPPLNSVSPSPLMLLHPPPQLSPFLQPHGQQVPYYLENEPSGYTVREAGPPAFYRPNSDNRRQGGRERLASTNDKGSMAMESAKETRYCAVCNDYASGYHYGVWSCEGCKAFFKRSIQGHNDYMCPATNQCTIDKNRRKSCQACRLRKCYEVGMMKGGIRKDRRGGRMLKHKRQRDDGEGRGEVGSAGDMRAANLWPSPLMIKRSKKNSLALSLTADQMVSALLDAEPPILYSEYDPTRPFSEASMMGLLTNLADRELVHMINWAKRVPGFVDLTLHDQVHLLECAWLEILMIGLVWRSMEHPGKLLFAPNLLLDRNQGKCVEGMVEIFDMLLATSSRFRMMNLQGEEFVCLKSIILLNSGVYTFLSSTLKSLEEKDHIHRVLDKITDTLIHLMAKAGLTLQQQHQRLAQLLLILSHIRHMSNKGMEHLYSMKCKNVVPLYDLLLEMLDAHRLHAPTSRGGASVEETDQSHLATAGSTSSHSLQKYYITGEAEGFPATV
# Phospholipase A2 = Phospholipase A2 (Homo sapiens, UniProt P04054); type: functional;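 also: confirmatory dose-response counterscreen on phospholipase A2, testing hits that came from an ultra-high-throughput screen for ATG4B inhibitors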
# Phospholipase A2, sequence (P04054 whole entry): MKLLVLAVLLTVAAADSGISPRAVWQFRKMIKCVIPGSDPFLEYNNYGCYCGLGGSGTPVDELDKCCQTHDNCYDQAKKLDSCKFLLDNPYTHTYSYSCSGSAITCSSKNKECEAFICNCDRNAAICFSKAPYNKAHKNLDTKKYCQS
# Cysteine protease ATG4B = biological target: T2, Cysteine protease ATG4B (Homo sapiens, UniProt Q9Y4P1); type: functional;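 also: Fluorescence-based dose-response confirmation assay measuring inhibition of ATG4B activity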
# T2 sequence (Q9Y4P1 whole entry): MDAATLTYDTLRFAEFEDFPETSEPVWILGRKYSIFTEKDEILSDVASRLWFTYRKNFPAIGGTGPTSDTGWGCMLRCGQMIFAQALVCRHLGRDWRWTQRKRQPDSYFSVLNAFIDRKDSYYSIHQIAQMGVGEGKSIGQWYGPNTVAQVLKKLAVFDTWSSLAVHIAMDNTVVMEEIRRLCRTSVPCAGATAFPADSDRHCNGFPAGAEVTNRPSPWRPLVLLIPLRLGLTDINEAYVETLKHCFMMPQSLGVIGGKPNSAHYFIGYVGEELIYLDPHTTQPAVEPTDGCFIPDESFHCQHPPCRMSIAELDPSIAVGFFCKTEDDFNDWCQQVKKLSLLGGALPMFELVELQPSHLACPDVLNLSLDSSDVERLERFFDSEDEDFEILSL
# Vero = assay: cells; type: functional; details: Chlorocebus sabaeus
# [7] = biological target: Heat shock protein HSP 90-alpha (Homo sapiens, UniProt P07900); type: functional, organism-based
# [8] = biological target: T3, Heat shock factor protein 1 (Mus musculus, UniProt P38532); assay: HSF1 potentiators in luciferase reporter cells, confirmation, cell-based, NIH3T3, luminescence, dose retest (AID 435004); type: functional;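 also: stress induced by proteasome inhibitor MG132 added 30 min after compound; luciferase reporter driven by HSF1 response element in NIH3T3 cells; actives raise luminescence as potentiators of the MG132 stress response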
# T3 sequence (P38532 whole entry): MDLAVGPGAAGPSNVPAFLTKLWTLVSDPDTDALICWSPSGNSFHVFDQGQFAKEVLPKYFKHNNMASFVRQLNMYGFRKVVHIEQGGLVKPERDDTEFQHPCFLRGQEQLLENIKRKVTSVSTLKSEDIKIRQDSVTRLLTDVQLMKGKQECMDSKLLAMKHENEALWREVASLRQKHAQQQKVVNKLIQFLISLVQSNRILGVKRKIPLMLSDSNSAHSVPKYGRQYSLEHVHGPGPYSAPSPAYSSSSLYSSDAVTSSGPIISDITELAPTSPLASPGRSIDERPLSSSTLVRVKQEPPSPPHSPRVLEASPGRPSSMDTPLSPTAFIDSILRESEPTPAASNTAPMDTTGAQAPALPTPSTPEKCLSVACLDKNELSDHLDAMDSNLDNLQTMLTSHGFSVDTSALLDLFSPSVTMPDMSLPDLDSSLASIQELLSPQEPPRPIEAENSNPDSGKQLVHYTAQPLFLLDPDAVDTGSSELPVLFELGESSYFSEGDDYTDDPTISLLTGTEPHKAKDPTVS
# [9] = cytotoxicity in HPDE-C7 cells, cell-based, fluorescence, HTS (AID 430); type: functional; details: Homo sapiens
# [10] = cytotoxicity in KRAS-transformed pancreatic duct cells, primary screen, cell-based, fluorescence, HTS (AID 431); type: functional; details: Homo sapiens;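 also: cell line used: HPDE-C7K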
# [11] = THP-1 cell cytotoxicity, dose response, cytotoxicity control for Vif-APOBEC3G degradation inhibitor project, THP-1 cells (AID 1117359); type: functional; details: Human immunodeficiency virus 1, THP-1
# [12] = NIH-3T3 fibroblast cytotoxicity, dose response, cytotoxicity control, cell-based, fluorescence, Alamar Blue, secondary assay (AID 2327); type: functional;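 also: NIH-3T3 mouse fibroblasts cultured with fluconazole at 8 µg/mL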
# HEK293 [13] = assay: cells; details: Homo sapiens
# [14] = inhibitors of SNCA 5'UTR-driven reporter translation, confirmation, H4 neuroglioma cells, luminescence (AID 1988); type: functional, cell-based
# [15] = inhibitors of firefly luciferase expression or activity, dose response, H4 neuroglioma cells, luminescence (AID 1990); type: functional, cell-based
# HEK293 [16] = assay: cells; details: Homo sapiens; remark: listed apart in the source
# [17] = microbe, parasite or virus in culture; type: functional; details: Mycobacterium tuberculosis
# Streptokinase A = biological target: T4, Streptokinase A (Streptococcus pyogenes serotype M1, UniProt P10520); assay: S. pyogenes streptokinase expression inhibitors, potency, dose response, plasminogen activation absorbance, OD405 (AID 1914); type: functional, Streptococcus pyogenes M1 GAS;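 also: secreted streptokinase activity via plasminogen activation per viability signal from cell pellet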
# T4 sequence (P10520 whole entry): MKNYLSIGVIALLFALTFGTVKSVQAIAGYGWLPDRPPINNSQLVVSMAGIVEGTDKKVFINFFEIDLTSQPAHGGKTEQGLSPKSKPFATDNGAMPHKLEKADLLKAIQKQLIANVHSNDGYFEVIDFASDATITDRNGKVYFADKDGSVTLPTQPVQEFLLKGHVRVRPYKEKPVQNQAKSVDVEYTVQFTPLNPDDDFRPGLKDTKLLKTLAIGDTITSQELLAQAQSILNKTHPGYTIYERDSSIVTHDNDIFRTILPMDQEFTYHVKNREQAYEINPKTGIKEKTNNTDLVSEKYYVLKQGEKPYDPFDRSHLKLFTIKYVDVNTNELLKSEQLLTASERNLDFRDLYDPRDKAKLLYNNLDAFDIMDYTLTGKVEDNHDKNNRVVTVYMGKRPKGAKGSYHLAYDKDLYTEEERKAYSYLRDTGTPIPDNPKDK
# Streptococcus = assay: Group A Streptococcus viability loss, dose response, counter-screen for streptokinase expression inhibitor project, luminescence, BacTiterGlo (AID 1915); type: functional, organism-based;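 also: potency for reduction of bacterial viability or growth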
# [18] = test system: Streptococcus sp. 'group A'; assay: growth inhibition of control SK(-) GAS strain, dose response, counter-screen for streptokinase expression inhibitor project, luminescence, kanamycin, BacTiterGlo, confirmation (AID 1900); type: functional, organism-based
# [19] = biological target: Disintegrin and metalloproteinase domain-containing protein 17 (Homo sapiens, UniProt P78536); assay: ADAM17 protease inhibitors, dose response, counter-screen for ADAM10 exosite inhibitor project, biochemical, quenched FRET substrate (AID 743253)
# Disintegrin and metalloproteinase domain-containing protein 17, sequence (P78536 whole entry, the tested form may be a part): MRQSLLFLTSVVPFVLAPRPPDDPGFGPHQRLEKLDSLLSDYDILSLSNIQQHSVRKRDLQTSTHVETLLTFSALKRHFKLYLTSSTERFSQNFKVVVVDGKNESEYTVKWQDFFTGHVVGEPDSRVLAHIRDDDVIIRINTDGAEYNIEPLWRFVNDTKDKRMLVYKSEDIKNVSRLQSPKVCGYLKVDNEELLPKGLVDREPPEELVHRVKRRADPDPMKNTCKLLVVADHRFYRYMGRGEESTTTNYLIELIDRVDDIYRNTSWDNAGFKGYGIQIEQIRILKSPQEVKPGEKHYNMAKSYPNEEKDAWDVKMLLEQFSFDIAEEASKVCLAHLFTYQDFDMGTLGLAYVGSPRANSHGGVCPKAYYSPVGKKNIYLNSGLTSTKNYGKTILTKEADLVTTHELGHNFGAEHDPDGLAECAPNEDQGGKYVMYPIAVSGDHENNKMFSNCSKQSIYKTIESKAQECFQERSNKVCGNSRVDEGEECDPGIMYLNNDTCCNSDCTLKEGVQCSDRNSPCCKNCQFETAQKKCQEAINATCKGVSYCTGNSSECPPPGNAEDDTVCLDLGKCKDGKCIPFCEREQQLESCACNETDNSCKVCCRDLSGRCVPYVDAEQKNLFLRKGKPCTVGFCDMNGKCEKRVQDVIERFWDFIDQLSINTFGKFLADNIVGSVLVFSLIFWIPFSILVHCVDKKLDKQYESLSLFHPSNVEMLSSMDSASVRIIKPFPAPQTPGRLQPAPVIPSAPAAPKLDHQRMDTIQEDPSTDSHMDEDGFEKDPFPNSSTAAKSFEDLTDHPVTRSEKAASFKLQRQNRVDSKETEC
# [20] = biological target: FAD-linked sulfhydryl oxidase ALR (Homo sapiens, UniProt P55789); assay: inhibitors of human ALR sulfhydryl oxidase, dose response, biochemical, H2O2 detection, luminescence, cherry-pick (AID 493248)
# FAD-linked sulfhydryl oxidase ALR, sequence (P55789 whole entry): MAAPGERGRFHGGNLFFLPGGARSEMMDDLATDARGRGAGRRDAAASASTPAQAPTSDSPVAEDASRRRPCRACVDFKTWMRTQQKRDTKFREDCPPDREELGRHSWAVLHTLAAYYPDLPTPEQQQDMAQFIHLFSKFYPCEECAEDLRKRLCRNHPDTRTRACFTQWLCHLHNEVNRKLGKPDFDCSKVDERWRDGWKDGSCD
# Albumin = Albumin (Bos taurus, UniProt P02769); assay: Counterscreen for inhibitors of T-cell receptor (TCR)-CD3 interaction: Fluorescence-based biochemical high throughput dose response assay to identify inhibitors of T-cell receptor (TCR)-CD3 interaction using a TAMRA-labeled BSA probe.; type: functional
# Albumin, sequence (P02769 whole entry): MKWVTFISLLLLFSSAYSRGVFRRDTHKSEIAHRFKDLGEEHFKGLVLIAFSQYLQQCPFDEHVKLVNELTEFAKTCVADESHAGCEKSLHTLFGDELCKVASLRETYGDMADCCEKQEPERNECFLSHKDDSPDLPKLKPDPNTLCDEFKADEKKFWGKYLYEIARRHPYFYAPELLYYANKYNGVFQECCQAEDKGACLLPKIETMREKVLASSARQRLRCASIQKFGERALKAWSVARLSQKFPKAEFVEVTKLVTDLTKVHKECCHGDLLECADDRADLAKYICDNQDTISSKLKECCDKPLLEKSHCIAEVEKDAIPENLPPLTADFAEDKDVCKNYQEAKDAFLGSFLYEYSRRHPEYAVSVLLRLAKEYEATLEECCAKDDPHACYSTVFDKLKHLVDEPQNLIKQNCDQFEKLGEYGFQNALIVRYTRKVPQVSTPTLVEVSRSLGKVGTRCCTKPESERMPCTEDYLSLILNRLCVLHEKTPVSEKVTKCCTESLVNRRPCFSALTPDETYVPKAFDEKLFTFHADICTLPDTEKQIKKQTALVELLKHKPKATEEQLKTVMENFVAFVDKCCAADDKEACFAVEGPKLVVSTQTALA
compound,measurement,setting,value
C[C@@H]1CN([C@H](C)CO)C(=O)c2cccc(NC(=O)c3nc4ccccc4s3)c2O[C@H]1CN(C)C(=O)Nc1ccc(C(F)(F)F)cc1,AC50,[1],1.18 µM (active)
same,AC50,[2],2.06 µM (active)
same,AC50,[3],0.816 µM (active)
same,AC50,[4],1.08 µM (active)
COc1ccc([C@H]2C/C=C/C[C@H](C)Oc3ccccc3C(=O)N(C)[C@@H](Cc3ccccc3)C(=O)N2)c(OC)c1.COc1ccc([C@H]2C/C=C\C[C@H](C)Oc3ccccc3C(=O)N(C)[C@@H](Cc3ccccc3)C(=O)N2)c(OC)c1,AC50,[5],1.58 µM (active)
COc1cc(CN2CCN(c3ncccn3)CC2)cc(OC)c1,EC50,[6],0.384 µM (active)
same,EC50,Mu-type opioid receptor,92.4 µM (inactive)
Cc1cccc(NC(=O)COc2cccc3c2CCNC3=O)c1,IC50,H9c2,> 79 µM (inactive)
CCCSc1nc(C)c(-c2csc(C(C#N)=C3CCCC3)n2)cc1C#N,IC50,Estrogen receptor,9.34 µM (active)
c1ccc(COc2ccc(CN3CCN(c4ccccn4)CC3)cc2)cc1,EC50,[6],0.054 µM (active)
same,EC50,Mu-type opioid receptor,92.5 µM (inactive)
CCNC(=O)/C(C#N)=C/c1c(N(Cc2ccccc2)Cc2ccccc2)nc2ccccn2c1=O,IC50,H9c2,> 79 µM (inactive)
C[C@@H]1CCCCO[C@H](CN(C)S(=O)(=O)c2ccc(F)cc2)[C@H](C)CN([C@H](C)CO)C(=O)c2cc(N(C)C)ccc2O1,AC50,[5],4.45 µM (active)
COc1cc(OC)cc(-c2nc3ccccc3c(=O)n2OC(=O)c2ccc(Br)cc2)c1,IC50,Phospholipase A2,4.74 µM (active)
same,IC50,Cysteine protease ATG4B,2.51 µM (active)
O=C(N/N=C/c1ccccn1)c1cc(-c2ccc(Br)cc2)nc2ccccc12,CC50,Vero,9.94 µM (active)
same,AC50,[7],2.24 µM (active)
same,EC50,[8],4.85 µM (active)
COc1ccc(C(=O)Oc2c(CN3CCOCC3)cc(Cl)c3cccnc23)cc1,EC50,[9],5.17 µM (active)
same,EC50,[10],13.4 µM (active)
same,CC50,[11],5.39 µM (active)
same,EC50,[12],> 160 µM (inactive)
COc1ccc(-c2nnc3sc(C4CCCCC4)nn23)cc1OC,EC50,HEK293 [13],> 59.7 µM (inactive)
same,EC50,[14],25.6 µM (active)
same,EC50,[15],58.6 µM (active)
same,EC50,HEK293 [16],> 59.7 µM (inactive)
same,CC50,[17],> 40 µM (active)
O=[N+]([O-])c1cc(S(=O)(=O)Nc2ccccc2)ccc1N1CCN(c2ccccc2)CC1,CC50,Vero,13.5 µM (active)
same,EC50,Streptokinase A,23.9 µM (active)
same,EC50,Streptococcus,> 150 µM (not active)
same,EC50,[18],16.2 µM (active)
same,IC50,[19],> 69.5 µM (inactive)
CCOc1ccc(Nc2oc(-c3ccccc3Cl)nc2C#N)cc1,IC50,Estrogen receptor,9.54 µM (active)
O=C(NNC(=O)c1cc(-c2ccccc2)nc2ccccc12)Nc1cccc(Cl)c1,EC50,Streptokinase A,22.4 µM (active)
same,EC50,Streptococcus,40.2 µM (active)
same,EC50,[18],3.9 µM (active)
same,IC50,[19],> 69.5 µM (inactive)
Cc1ccccc1CN1CCN(C(=O)c2ccco2)CC1,EC50,[6],4.89 µM (active)
same,EC50,Mu-type opioid receptor,92.5 µM (inactive)
COc1ccc(C2NC3=C(CCCC3)C(C#N)(C#N)C2(C#N)C#N)cc1 (stereo not given),EC50,[9],> 20 µM (not active)
same,EC50,[10],> 20 µM (not active)
Cc1cc(NS(=O)(=O)c2ccc(Nc3nc(-c4ccc(C)c(C)c4)cs3)cc2)no1,IC50,Phospholipase A2,11.9 µM (active)
same,IC50,Cysteine protease ATG4B,13.1 µM (active)
CC(C)c1ccc(NC2CCCN(C(=O)CCN3Cc4ccccc4C3=O)C2)cc1 (stereo not given),IC50,Phospholipase A2,7.98 µM (active)
same,IC50,Cysteine protease ATG4B,15.5 µM (active)
same,AC50,[20],4.43 µM (active)
COC(=O)c1ccc(N2CCC(c3cc(-c4ccc(OC)cc4)n[nH]3)CC2)c([N+](=O)[O-])c1,EC50,Streptokinase A,> 150 µM (not active)
same,IC50,[19],> 69.5 µM (inactive)
c1ccc2c(c1)NCC1CCCN21 (stereo not given),CC50,[11],> 40 µM (active)
COc1ccc(-c2cnnn2-c2ccc(NC(=O)c3ccc(S(=O)(=O)N4CCCCC4)cc3)cc2)cc1OC,IC50,Albumin,> 94.1 µM (inactive)
CS(=O)(=O)N1[C@H](C#N)[C@H](c2ccc(C#Cc3cccc(F)c3)cc2)[C@H]1CO,AC50,[5],10.1 µM (active)
COc1ccc(-c2cc(CNS(=O)(=O)c3ccc(NC(C)=O)cc3)on2)cc1,CC50,Vero,> 25 µM (active)
Cc1ccc(O)c(/C=N/NC(=O)COc2ccc3c(C)cc(=O)oc3c2)c1,IC50,Albumin,> 94.1 µM (inactive)
CCOC(=O)CSc1nn(C)c(=S)s1,IC50,Estrogen receptor,7.98 µM (active)
CCOC(=O)c1c(C)nc2sc3c(=O)n(-c4ccc(C(C)=O)cc4)cnc3c2c1-c1ccc(OC)cc1,IC50,H9c2,> 79 µM (inactive)
COc1ccc(N(CC(=O)Nc2cccc(C(C)=O)c2)S(=O)(=O)c2ccc(NC(C)=O)cc2)cc1,IC50,H9c2,> 79 µM (inactive)
N#CC1=C2SCC(O)(c3ccccc3)N2C(=O)CC1c1cccs1 (stereo not given),EC50,[9],1.44 µM (active)
same,EC50,[10],1.53 µM (active)
COc1ccc(C(=O)C2CCCN(C(=O)c3cnsn3)C2)c(C)c1 (stereo not given),CC50,[11],> 40 µM (active)
CCOc1cccc(CN2CCCC(C(=O)Nc3cccc(-n4cccn4)c3)C2)c1 (stereo not given),CC50,[11],> 40 µM (active)
